Assay results from patent US5521173A, “Tricyclic benzazepine vasopressin antagonists” (American Home Products Corporation, priority 1995, dated 1996).
pIC50: −log10 of the molar value.

What was measured:
oxytocin receptors = molecular target: T1, oxytocin receptors (Rattus norvegicus, UniProt P70536); experiment: Oxytocin Receptor Binding; set-up: species or system rat (female Sprague-Dawley); conditions: for pIC50: 1.0 nM [3H]OT
T1 construct: The uteri are dissected out, cleaned of fat and connective tissues; from tissue; host or cells: uteri of DES-treated female Sprague-Dawley rats
T1 sequence (P70536 1-388): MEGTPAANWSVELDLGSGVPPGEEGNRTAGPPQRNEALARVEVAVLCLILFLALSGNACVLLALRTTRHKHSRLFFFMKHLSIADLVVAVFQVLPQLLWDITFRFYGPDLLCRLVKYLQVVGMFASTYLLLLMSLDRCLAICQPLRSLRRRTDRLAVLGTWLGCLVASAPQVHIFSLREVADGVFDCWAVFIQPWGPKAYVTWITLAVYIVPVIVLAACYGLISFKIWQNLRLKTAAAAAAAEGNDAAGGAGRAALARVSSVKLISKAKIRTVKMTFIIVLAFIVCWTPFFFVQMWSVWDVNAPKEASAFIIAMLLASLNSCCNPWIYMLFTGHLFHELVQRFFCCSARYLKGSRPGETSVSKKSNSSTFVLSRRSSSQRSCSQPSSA
Procedure: Oxytocin Receptor Binding
Female Sprague-Dawley rats weighing approximately 200-250 g are injected intramuscularly (i.m.) with 0.3 mg/kg of body weight of diethylstilbestrol (DES). The rats are sacrificed 18 hours later under pentobarbital anesthesia. The uteri are dissected out, cleaned of fat and connective tissues and rinsed in 50 ml of normal saline. The tissue pooled from six rats is homogenized in 50 ml of […] Tris.HCl, containing 0.5 mM dithiothreitol and 1.0 mM EDTA, adjusted to pH 7.4, using a polytron at setting 6 with three passes of 10 sec each. The homogenate is passed through two (2) layers of cheesecloth and the filtrate centrifuged at 1000× g for 10 min. The clear supernatant is removed and recentrifuged at 165,000× g for 30 min. The resulting pellet containing the oxytocin receptors is resuspended in 50.0 mM Tris.HCl containing 5.0 mM MgCl2 at pH 7.4, to give a protein concentration of 2.5 mg/ml of tissue suspension. This preparation is used in subsequent binding assays with [^3 H]Oxytocin.
Binding of 3,5-[^3 H]Oxytocin ([^3 H]OT) to its receptors is done in microtiter plates using [^3 H]OT, at various concentrations, in an assay buffer of 50.0 mM Tris.HCl, pH 7.4 and containing 5.0 mM MgCl2, and a mixture of protease inhibitors: BSA, 0.1 mg; aprotinin, 1.0 mg; 1,10-phenanthroline, 2.0 mg; […], 10.0 mg; and PMSF, 0.3 mg per 100 ml of buffer solution. Non-specific binding is determined in the presence of 1.0 uM unlabeled OT. The binding reaction is terminated after 60 min., at 22° C., by rapid filtration through glass fiber filters using a Brandel, cell harvester (Biomedical Research and Development Laboratories,Inc., Gaithersburg, Md.). Competition experiments are conducted at equilibrium using 1.0 nM [^3 H]OT and varying the concentration of the displacing agents. The concentrations of agent displacing 50% of [^3 H]OT at its sites (IC50) are calculated by a computer assisted LUNDON-2 program (LUNDON SOFTWARE INC., Ohio, USA).

Vasopressin V2 = Vasopressin V2 Antagonist Activity in Conscious Hydrated Rats; type: in vivo, rat; conditions: 10 mg/kg orally, AVP 0.4 μg/kg i.p.; for Osmolality: urine
Procedure: Two to four rats are used for each compound. One hour later, arginine vasopressin (AVP, antidiuretic hormore, ADH) dissolved in peanut oil is administered at 0.4 μg/kg intraperitoneally. Two rats in each test would not receive arginine vasopressin but only the vehicle (peanut oil) to serve as water-loading control. Twenty minutes later each rat is given 30 mL/kg of deionized water orally by gavage and is placed individually in a metabolic cage equipped with a funnel and a graduated glass cylinder to collect urine for four hours. Urine volume is measured and osmolality analyzed by use of a Fiske One-Ten osmometer (Fiske Assoc., Norwood, Mass., USA). Urinary sodium, potassium, and chloride are analyzed by use of ion-specific electrodes in a Beckman E3 (Electrolyte 3) Analyzer. In the following results, […] and decreased osmolality relative to AVP-control indicates activity.

[1] = molecular target: T2, Vasopressin V1 receptor subtype in Human Platelet Membranes (Homo sapiens, UniProt P37288); experiment: Binding to Vasopressin V1 receptor subtype in Human Platelet Membranes
T2 construct: tissue Hudson Valley Blood Services, Westchester Medical Center, Valhalla, N.Y; host or cells: human platelets (frozen platelet rich plasma)
Procedure: Radioligand Binding Experiments with Human Platelet Membranes
(a) Platelet Membrane Preparation
Frozen platelet rich plasma (PRP), (Platelet Source: Hudson Valley Blood Services, Westchester Medical Center, Valhalla, N.Y.) are thawed to room temperature. The tubes containing the PRP are centrifuged at 16,000×g for 10 min. at 4° C. and the supernatant fluid discarded. The platelets resuspended in an equal volume of 50.0 mM Tris.HCl, pH 7.5 containing 120 mM NaCl and 20.0 mM EDTA. The suspension is recentrifuged at 16,000× g for 10 min. This washing step is repeated one more time. The wash discarded and the lysed pellets homogenized in low ionic strength buffer of Tris.HCl, 5.0 mM, pH 7.5 containing 5.0 mM EDTA. The homogenate is centrifuged at 39,000× g for 10 min. The resulting pellet is resuspended in Tris.HCl buffer, 70.0 mM, pH 7.5 and recentrifuged at 39,000× g for 10 min. The final pellet is resuspended in 50.0 mM Tris.HCl buffer pH 7.4 containing 120 mM NaCl and 5.0 mM KCl to give 1.0-2.0 mg protein per ml of suspension.
(b) Binding to Vasopressin V1 receptor subtype in Human Platelet Membranes
In wells of a 96 well format microtiter plate, add 100 μl of 50.0 mM Tris.HCl buffer containing 0.2% BSA and a mixture of protease inhibitors (aprotinin, leupeptin etc.). Then add 20 μl of [^3 H]Ligand (Manning or Arg^8 Vasopressin), to give final concentrations ranging from 0.01 to 10.0 nM. Initiate the binding by adding 80.0 μl of platelet suspension (approx. 100 μg protein). Mix all reagents by pipetting the mixture up and down a few times. Non specific binding is measured in the presence of 1.0 µM of unlabeled ligand (Manning or Arg^8 Vasopressin). Let the mixture stand undisturbed at room temperature for ninety (90) min. Upon this time, rapidly filter off the incubate under vacuum suction over GF/B filters, using a Brandel Harvester. Determine the radioactivity caught on the filter disks by the addition of liquid scintillant and counting in a liquid scintillator.

Vasopressin V1 = Vasopressin V1 Antagonist Activity in Conscious Rats (vasopressin vasopressor response); type: in vivo, rat; conditions: for Max % Inhibition: vasopressin vasopressor response
Procedure: Vasopressin V1 Antagonist Activity in Conscious Rats Conscious rats are restrained in a supine position with elastic tape. The area at the base of the tail is locally anesthetized by subcutaneous in filtration with 2% procaine (0.2 ml). Using aseptic technique the ventral caudal tail artery is isolated and a cannula made of PE 10 and 20 (heat-fused) tubing is passed into the lower abdominal aorta. The cannula is secured, heparinized (1000 i.u./cc), sealed and the wound closed with one or two stitches of Dexon 4-0. The caudal vein is also cannulated in the same manner for intravenous drug administration. The duration of the surgery is approximately 5 minutes. Additional local anesthesia (2% procaine or lidocaine) is provided as needed. The animals are placed in plastic restraining cages in an upright position. The cannula is attached to a Statham P23Db pressure transducer and pulsatile blood pressure is recorded. […] Percentage of antagonism by the compound is calculated using the pre-drug vasopressin vasopressor response as 100%. The results of this test on representative compounds of this invention in which the dose, the maximum % inhibition and the time in minutes, are shown in Table III.

T2 sequence (P37288 whole entry): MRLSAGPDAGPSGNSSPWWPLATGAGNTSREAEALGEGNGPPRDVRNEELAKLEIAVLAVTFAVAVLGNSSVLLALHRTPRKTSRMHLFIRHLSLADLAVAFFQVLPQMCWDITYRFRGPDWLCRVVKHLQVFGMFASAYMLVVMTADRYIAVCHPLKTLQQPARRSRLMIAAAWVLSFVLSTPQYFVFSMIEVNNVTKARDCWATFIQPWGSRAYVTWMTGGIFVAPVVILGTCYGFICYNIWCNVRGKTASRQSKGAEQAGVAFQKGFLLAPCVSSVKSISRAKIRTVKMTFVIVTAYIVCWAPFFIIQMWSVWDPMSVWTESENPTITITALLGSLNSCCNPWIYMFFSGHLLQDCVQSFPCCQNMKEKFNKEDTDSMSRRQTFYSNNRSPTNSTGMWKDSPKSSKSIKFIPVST

O=C(c1ccc(Sc2ccccc2)cc1)N1Cc2cccn2Cc2ccccc21 [Example 15, 10,11-Dihydro-10-[4-(phenylthio)benzoyl]-5H-pyrrolo[2,1-c][1,4] benzodiazepine]
inhibition at 10 µM (oxytocin receptors): 98%
pIC50 (oxytocin receptors): 5.68
Urine Volume (Vasopressin V2): 4 ml/4 hrs
Osmolality (Vasopressin V2): 1278 mOsm/kg

O=C(c1ccc(-c2nccs2)cc1)N1Cc2cccn2Cc2ccccc21 [Example 10, 10,11-Dihydro-10-[4-(2-thiazolyl)benzoyl]-5H-pyrrolo[2,1-c][1,4]benzodiazepine]
inhibition at 10 µM (oxytocin receptors): 77%
pIC50 (oxytocin receptors): 5.60

Cc1ccc(S(=O)(=O)c2ccc(C(=O)N3Cc4cccn4Cc4ccccc43)cc2)cc1 [Example 13, 10,11-Dihydro-10-[4-[(4-methylphenyl)sulfonyl]benzoyl]-5H-pyrrolo[2,1-c][1,4]benzodiazepine]
inhibition at 10 µM (oxytocin receptors): 67%
pIC50 [1]: 7.68
Urine Volume (Vasopressin V2): 5.5 ml/4 hrs
Osmolality (Vasopressin V2): 1380 mOsm/kg

C=CCOc1ccc(-c2ccc(C(=O)N3Cc4cccn4Cc4ccccc43)cc2)cc1 [Example 14, 10,11-Dihydro-10-[[4'-(2-propenyloxy)[1,1'-biphenyl]-4-yl]carbonyl]-5H-pyrrolo[2,1-c][1,4]benzodiazepine]
inhibition at 10 µM (oxytocin receptors): 67%
Time (of maximum % inhibition) (Vasopressin V1; 30 mg/kg iv): 90 min
Max % Inhibition (Vasopressin V1; 30 mg/kg iv): 50%
Urine Volume (Vasopressin V2): 4 ml/4 hrs
Osmolality (Vasopressin V2): 1247 mOsm/kg

Cc1ccc(Sc2ccc(C(=O)N3Cc4cccn4Cc4ccccc43)cc2)cc1 [Example 11]
inhibition at 10 µM (oxytocin receptors): 86%
pIC50 (oxytocin receptors): 5.74
Time (of maximum % inhibition) (Vasopressin V1; 30 mg/kg iv): 300 min
Max % Inhibition (Vasopressin V1; 30 mg/kg iv): 54%
Urine Volume (Vasopressin V2): 11 ml/4 hrs
Osmolality (Vasopressin V2): 825 mOsm/kg

CN(C)Cc1ccc2n1Cc1ccccc1N(C(=O)c1ccc(-c3ccccc3)cc1)C2 [Example 20, 10-([1,1'-Biphenyl]-4-ylcarbonyl)-10,11-dihydro-N,N-dimethyl-5H-pyrrolo[2,1-c][1,4]benzodiazepine-3-methanamine]
inhibition at 10 µM (oxytocin receptors): 100%
pIC50 (oxytocin receptors): 6.96
pIC50 [1]: 7.89
Time (of maximum % inhibition) (Vasopressin V1; 10 mg/kg iv): 240 min
Max % Inhibition (Vasopressin V1; 10 mg/kg iv): 61%
Urine Volume (Vasopressin V2): 3.5 ml/4 hrs
Osmolality (Vasopressin V2): 1650 mOsm/kg

O=C(c1ccc(-c2ccccc2)cc1)N1Cc2cccn2-c2ccccc21 [Example 17, 5-([1,1'-Biphenyl]-4-ylcarbonyl)-4,5-dihydropyrrolo[1,2-a]quinoxaline]
inhibition at 10 µM (oxytocin receptors): 92%
pIC50 (oxytocin receptors): 5.96
Time (of maximum % inhibition) (Vasopressin V1; 30 mg/kg iv): 60 min
Max % Inhibition (Vasopressin V1; 30 mg/kg iv): 63%
Urine Volume (Vasopressin V2): 10.3 ml/4 hrs
Osmolality (Vasopressin V2): 929 mOsm/kg

O=C(c1ccc(C#Cc2ccccc2)cc1)N1Cc2cccn2Cc2ccccc21 [Example 4, 10,11-Dihydro-10-[4-(phenylethynyl)-5H-pyrrolo[2,1-c]1,4]benzodiazepine]
inhibition at 10 µM (oxytocin receptors): 62%
Time (of maximum % inhibition) (Vasopressin V1; 30 mg/kg iv): 90 min
Max % Inhibition (Vasopressin V1; 30 mg/kg iv): 30%
Urine Volume (Vasopressin V2): 6.3 ml/4 hrs
Osmolality (Vasopressin V2): 1033 mOsm/kg

O=C(c1ccc(S(=O)(=O)c2ccccc2)cc1)N1Cc2cccn2Cc2ccccc21 [Example 12]
inhibition at 10 µM (oxytocin receptors): 69%
Urine Volume (Vasopressin V2): 5.8 ml/4 hrs
Osmolality (Vasopressin V2): 1254 mOsm/kg

O=C(c1ccccc1)c1ccc(C(=O)N2Cc3cccn3Cc3ccccc32)cc1 [Example 16, 10-(4-Benzoylbenzoyl)-10,11-dihydro-5H-pyrrolo[2,1-c][1,4]benzodiazepine]
inhibition at 10 µM (oxytocin receptors): 100%
pIC50 (oxytocin receptors): 6.96
Time (of maximum % inhibition) (Vasopressin V1; 10 mg/kg iv): 240 min
Max % Inhibition (Vasopressin V1; 10 mg/kg iv): 67%
Urine Volume (Vasopressin V2): 6 ml/4 hrs
Osmolality (Vasopressin V2): 1022 mOsm/kg

Cc1ccc(Oc2ccc(C(=O)N3Cc4cccn4Cc4ccccc43)cc2)cc1 [Example 18, 10,11-Dihydro-10-[4-(4-methylphenoxy)benzoyl]-5H-pyrrolo[2,1-c][1,4]benzodiazepine]
inhibition at 10 µM (oxytocin receptors): 99%
pIC50 (oxytocin receptors): 6.92
pIC50 [1]: 6.55
Time (of maximum % inhibition) (Vasopressin V1; 30 mg/kg iv): 300 min
Max % Inhibition (Vasopressin V1; 30 mg/kg iv): 36%
Urine Volume (Vasopressin V2): 5.3 ml/4 hrs
Osmolality (Vasopressin V2): 919 mOsm/kg

O=C(c1ccc(-c2cccs2)cc1)N1Cc2cccn2Cc2ccccc21 [Example 1, 10,11-Dihydro-10-[4-(2-thienyl)benzoyl]-5H-pyrrolo[2,1-c][1,4]benzodiazepine]
Time (of maximum % inhibition) (Vasopressin V1; 30 mg/kg po): 120 min
Max % Inhibition (Vasopressin V1; 30 mg/kg po): 53%
Urine Volume (Vasopressin V2): 5 ml/4 hrs
Osmolality (Vasopressin V2): 1148 mOsm/kg
